Data published in PubChem BioAssay (NCI).
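Five concentrations, 48 hours, 96-well plates. At the TGI there is no net growth.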

Tests used:
Assay in all cases: DTP human tumour cell line panel, 48 h
SK-MEL-28 melanoma = tested on: SK-MEL-28 melanoma
U251 CNS = tested on: U251 CNS
DU-145 prostate = tested on: DU-145 prostate
SF-268 CNS = tested on: SF-268 CNS
HCC-2998 colon = tested on: HCC-2998 colon
OVCAR-4 ovarian = tested on: OVCAR-4 ovarian
LOX IMVI melanoma = tested on: LOX IMVI melanoma
EKVX NSCLC = tested on: EKVX NSCLC
PC-3 prostate = tested on: PC-3 prostate
HCT-15 colon = tested on: HCT-15 colon
RXF 393 renal = tested on: RXF 393 renal
786-0 renal = tested on: 786-0 renal
SN12C renal = tested on: SN12C renal
IGROV1 ovarian = tested on: IGROV1 ovarian
OVCAR-3 ovarian = tested on: OVCAR-3 ovarian
SNB-19 CNS = tested on: SNB-19 CNS
HOP-62 NSCLC = tested on: HOP-62 NSCLC
BT-549 breast = tested on: BT-549 breast
A549 NSCLC = tested on: A549 NSCLC
UACC-257 melanoma = tested on: UACC-257 melanoma
T-47D breast = tested on: T-47D breast
MCF7 breast = tested on: MCF7 breast
HCT-116 colon = tested on: HCT-116 colon
HS 578T breast = tested on: HS 578T breast
MDA-N = tested on: MDA-N
COLO 205 colon = tested on: COLO 205 colon
CCRF-CEM leukemia = tested on: CCRF-CEM leukemia
K-562 leukemia = tested on: K-562 leukemia
HOP-92 NSCLC = tested on: HOP-92 NSCLC
OVCAR-8 ovarian = tested on: OVCAR-8 ovarian
ACHN renal = tested on: ACHN renal
UACC-62 melanoma = tested on: UACC-62 melanoma
MDA-MB-231 breast = tested on: MDA-MB-231 breast
TK-10 renal = tested on: TK-10 renal
RPMI-8226 leukemia = tested on: RPMI-8226 leukemia
A498 renal = tested on: A498 renal
MDA-MB-435 = tested on: MDA-MB-435
SF-295 CNS = tested on: SF-295 CNS
KM12 colon = tested on: KM12 colon
OVCAR-5 ovarian = tested on: OVCAR-5 ovarian
MALME-3M melanoma = tested on: MALME-3M melanoma
HL-60(TB) leukemia = tested on: HL-60(TB) leukemia
SNB-75 CNS = tested on: SNB-75 CNS
NCI-H23 lung = tested on: NCI-H23 lung
M14 melanoma = tested on: M14 melanoma
CAKI-1 renal = tested on: CAKI-1 renal
SW-620 colon = tested on: SW-620 colon
UO-31 renal = tested on: UO-31 renal
HT29 colon = tested on: HT29 colon
SF-539 CNS = tested on: SF-539 CNS
NCI/ADR-RES ovarian = tested on: NCI/ADR-RES ovarian
SK-MEL-2 melanoma = tested on: SK-MEL-2 melanoma
NCI-H522 lung = tested on: NCI-H522 lung
SK-MEL-5 melanoma = tested on: SK-MEL-5 melanoma
MOLT-4 leukemia = tested on: MOLT-4 leukemia
SK-OV-3 ovarian = tested on: SK-OV-3 ovarian

Compound O=C(NCCCN1CCN(CCCNC(=O)Nc2cccc3ccccc23)CC1)Nc1cccc2ccccc12 has a TGI (SK-MEL-28 melanoma) of 28.7 µM, a TGI (U251 CNS) of 18.9 µM and a TGI (DU-145 prostate) of 31.3 µM. It also gave a TGI (SF-268 CNS) of 38.8 µM, a TGI (HCC-2998 colon) of 4.58 µM and a TGI (OVCAR-4 ovarian) of 44.1 µM. The TGI (LOX IMVI melanoma) was 20.7 µM, the TGI (EKVX NSCLC) was 33.2 µM and the TGI (PC-3 prostate) was 21.5 µM. For the same compound, the TGI (HCT-15 colon) was 31.9 µM, the TGI (RXF 393 renal) was 27.6 µM and the TGI (786-0 renal) was 34.1 µM. The TGI (SN12C renal) was 30.7 µM, the TGI (IGROV1 ovarian) was 35.9 µM and the TGI (OVCAR-3 ovarian) was 26.5 µM. The TGI (SNB-19 CNS) was 48.4 µM, the TGI (HOP-62 NSCLC) was 23.9 µM and the TGI (BT-549 breast) was 27.1 µM. It also gave a TGI (A549 NSCLC) of 33.5 µM, a TGI (UACC-257 melanoma) of 25.9 µM and a TGI (T-47D breast) of 32.1 µM. For the same compound, the TGI (MCF7 breast) was 36.4 µM, the TGI (HCT-116 colon) was 28 µM and the TGI (HS 578T breast) was 49.1 µM. For the same compound, the TGI (MDA-N) was 30 µM, the TGI (COLO 205 colon) was 31.5 µM and the TGI (CCRF-CEM leukemia) was 71.3 µM. The TGI (K-562 leukemia) was greater than 100 µM, the TGI (HOP-92 NSCLC) was 29.5 µM and the TGI (OVCAR-8 ovarian) was 38.7 µM. For the same compound, the TGI (ACHN renal) was 30.1 µM, the TGI (UACC-62 melanoma) was 11.9 µM and the TGI (MDA-MB-231 breast) was 8.21 µM. The TGI (TK-10 renal) was 28.4 µM, the TGI (RPMI-8226 leukemia) was 40 µM and the TGI (A498 renal) was 30.5 µM. It also gave a TGI (MDA-MB-435) of 31.4 µM, a TGI (SF-295 CNS) of 27.4 µM and a TGI (KM12 colon) of 43.3 µM. The TGI (OVCAR-5 ovarian) was 28.3 µM, the TGI (MALME-3M melanoma) was 11.8 µM and the TGI (HL-60(TB) leukemia) was 67.2 µM. The TGI (SNB-75 CNS) was 36.5 µM, the TGI (NCI-H23 lung) was 33.6 µM and the TGI (M14 melanoma) was 29.9 µM. For the same compound, the TGI (CAKI-1 renal) was 31.7 µM, the TGI (SW-620 colon) was 22.9 µM and the TGI (UO-31 renal) was 31.2 µM. It also gave a TGI (HT29 colon) of 44.3 µM, a TGI (SF-539 CNS) of 34.3 µM and a TGI (NCI/ADR-RES ovarian) greater than 100 µM. For the same compound, the TGI (SK-MEL-2 melanoma) was 34.2 µM, the TGI (NCI-H522 lung) was 33.4 µM and the TGI (SK-MEL-5 melanoma) was 30.2 µM.

Work on O=[N+]([O-])c1cccc(N=Nc2c(O)ccc3ccccc23)c1 yielded a TGI (SK-MEL-28 melanoma) greater than 100 µM, a TGI (U251 CNS) greater than 100 µM and a TGI (DU-145 prostate) greater than 100 µM. For the same compound, the TGI (SF-268 CNS) was greater than 100 µM, the TGI (OVCAR-4 ovarian) was greater than 100 µM and the TGI (LOX IMVI melanoma) was greater than 100 µM. The TGI (EKVX NSCLC) was greater than 100 µM, the TGI (PC-3 prostate) was greater than 100 µM and the TGI (HCT-15 colon) was greater than 100 µM. It also gave a TGI (RXF 393 renal) greater than 100 µM, a TGI (786-0 renal) greater than 100 µM and a TGI (SN12C renal) greater than 100 µM. For the same compound, the TGI (IGROV1 ovarian) was greater than 100 µM, the TGI (SNB-19 CNS) was 75.5 µM and the TGI (HOP-62 NSCLC) was greater than 100 µM. For the same compound, the TGI (BT-549 breast) was greater than 100 µM, the TGI (A549 NSCLC) was greater than 100 µM and the TGI (UACC-257 melanoma) was greater than 100 µM. The TGI (T-47D breast) was greater than 100 µM, the TGI (HCT-116 colon) was greater than 100 µM and the TGI (HS 578T breast) was greater than 100 µM. It also gave a TGI (MDA-N) greater than 100 µM, a TGI (MOLT-4 leukemia) greater than 100 µM and a TGI (COLO 205 colon) greater than 100 µM. For the same compound, the TGI (CCRF-CEM leukemia) was 56.7 µM, the TGI (K-562 leukemia) was greater than 100 µM and the TGI (HOP-92 NSCLC) was greater than 100 µM. For the same compound, the TGI (OVCAR-8 ovarian) was greater than 100 µM, the TGI (UACC-62 melanoma) was greater than 100 µM and the TGI (MDA-MB-231 breast) was greater than 100 µM. It also gave a TGI (TK-10 renal) greater than 100 µM, a TGI (RPMI-8226 leukemia) greater than 100 µM and a TGI (A498 renal) greater than 100 µM. For the same compound, the TGI (SK-OV-3 ovarian) was greater than 100 µM, the TGI (MDA-MB-435) was greater than 100 µM and the TGI (SF-295 CNS) was greater than 100 µM. It also gave a TGI (KM12 colon) greater than 100 µM, a TGI (OVCAR-5 ovarian) greater than 100 µM and a TGI (MALME-3M melanoma) greater than 100 µM. The TGI (SNB-75 CNS) was greater than 100 µM, the TGI (NCI-H23 lung) was greater than 100 µM and the TGI (M14 melanoma) was greater than 100 µM. It also gave a TGI (CAKI-1 renal) greater than 100 µM, a TGI (SW-620 colon) greater than 100 µM and a TGI (UO-31 renal) greater than 100 µM. For the same compound, the TGI (HT29 colon) was greater than 100 µM, the TGI (NCI/ADR-RES ovarian) was greater than 100 µM and the TGI (SK-MEL-2 melanoma) was greater than 100 µM. For the same compound, the TGI (NCI-H522 lung) was greater than 100 µM and the TGI (SK-MEL-5 melanoma) was greater than 100 µM.
